Experimental data: US20220241378A1, “COMPOSITIONS AND METHODS FOR TREATMENT OF CHRONIC GRANULOMATOUS DISEASE” (priority 2019, published 2022)

Test system: alveolar macrophages from lung of C57BL/6 and p47phox-/- mice
Experiment: ROS production by DHR in alveolar macrophages, with or without MitoTEMPO
Format: cell-based
Conditions: 100 nM 1 hour, conidia 2 hours, absence or presence of MitoTEMPO (FIGS. 8C, 8D)
Method: Experiments were also conducted to determine whether Tβ4 increases mitochondrial redox balance. p47phox-/- mice were infected intranasally with A. fumigatus and treated with 5 mg/kg Tβ4. HIF-1α-dependent glycolytic genes were not increased by Tβ4 treatment (FIG. 8A). In contrast, Irg1 expression was increased in mice treated with Tβ4 (FIG. 8B). In addition, ROS production by DHR was measured in C57BL/6 and p47phox-/- mice pre-exposed to 100 nM T134 for 1 hour and pulsed with A. fumigatus conidia for additional 2 hours, in the absence (FIG. 8C) or presence (FIG. 8D) of MitoTEMPO. We could detect the production of mitochondrial ROS induced by Tβ4, thus supporting the hypothesis that mtROS might mediate the regulation of HIF-1α levels by Tβ4. 10 ng/ml PMA was used as a positive control. Fluorescence was measured by a Tecan Infinite 200 fluorimeter. Data are presented as mean ±SD and are representative of two independent experiments. […] RFU, relative fluorescence units.
Alveolar macrophages from lung of C57BL/6 and p47phox-/- uninfected mice were assessed for intracellular ROS production by dihydrorhodamine 123 (DHR) evaluation. […] The DHR was measured by the multifunctional microplate reader Tecan Infinite 200 (Tecan) at different time points. The results expressed as relative fluorescence units (RFU) are the means ±SD of at least two experiments in duplicate.

Thymosin β4 [Tβ4]
production of mitochondrial ROS (DHR): induced
